Like-named read-outs stand apart in the source and are kept apart here.

For assay [1], the target named is GDP-bound KRAS protein (aa 1-169), containing both G12C and C118A amino acid substitutions (Homo sapiens, UniProt P01116, C118A/G12C). Briefly: Coupled nucleotide exchange assay (SOS-mediated, AlphaScreen). The format is biochemical. As to the method: Coupled Nucleotide Exchange Assay:
For all subsequent steps, DTT was added to the reaction buffer at a final concentration of 1 mM. […] The assay plates were then read on a plate reader measuring luminescence signal. Signal intensity of compound-containing wells were normalized to DMSO control, and data were analyzed using a 4-parameter logistic model to calculate IC50 values.
A general note: Alpha assays give light when donor and acceptor beads are brought close together.

Assay [2] deals with MIA PaCa-2 (human pancreatic carcinoma) cells. Put plainly: Cell viability assay (CellTiter-Glo), MIA PaCa-2. The format is cell-based. The following applies: 72 h. The protocol:
(§1) MIA PaCa-2 (human pancreatic carcinoma; ATCC CRL-1420) or A549 (human lung carcinoma; ATCC CCL-185) cells were cultured in RPMI 1640 medium containing 10% fetal bovine serum and 1× penicillin/streptomycin/L-glutamine. Cells were seeded in 384-well plates at a density of 1.67E+04 cells/mL and incubated at 37° C., 5% CO2, overnight. Serially-diluted compound or DMSO was added to the cells, and plates were incubated at 37° C., 5% CO2 for 72 h. Cell viability was measured using a CellTiter-Glo® Luminescent Cell Viability Assay kit (Promega) according to the manufacturer's protocol. The luminescence signal of treated samples was normalized to DMSO control, and data were analyzed using a 4-parameter logistic model to calculate IC50 values.
In general terms: ATP-based viability assays read luminescence as a measure of living cells.

Assay [3] concerns A549 (human lung carcinoma) cells. Briefly: Cell viability assay (CellTiter-Glo), A549. The format is cell-based. The following applies: 72 h. As to the method: as §1
[4] abbreviates: 20 h compound pre-incubation (values marked * in Table 6), read-out: Avg 20 h Coupled exchange IC50.
Where [5] appears, read: 2 h compound pre-incubation, read-out: Avg 2 h Coupled exchange IC50.

Sequence of GDP-bound KRAS protein (aa 1-169), containing both G12C and C118A amino acid substitutions (P01116 1-169 isoform P01116-2 G12C/C118A): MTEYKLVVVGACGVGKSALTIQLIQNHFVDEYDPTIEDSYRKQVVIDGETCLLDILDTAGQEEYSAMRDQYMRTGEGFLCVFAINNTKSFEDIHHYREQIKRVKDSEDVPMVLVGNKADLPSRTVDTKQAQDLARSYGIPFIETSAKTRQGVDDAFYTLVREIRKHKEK

Regarding `C=CC(=O)N1CC2(CCN(c3nc4c(c(N[C@H](CC(=O)NC)CC(C)C)n3)CN(C(C)=O)C4)C2)C1` [Example 1-9, (3S)-3-((6-acetyl-2-(2-(2-propenoyl)-2,6-diazaspiro[3.4]octan-6-yl)-6,7-dihydro-5H-pyrrolo[3,4-d]pyrimidin-4-yl)amino)-N,5-dimethylhexanamide], the results for the IC50 in assay [1] (setting [4]), in assay [2] and in assay [3] were 472 nM, more than 5000 nM and more than 5000 nM, respectively.

As to `C=CC(=O)N1CC2(CCN(c3nc(N[C@H](CC(=O)NC)CC(C)C)c4c(n3)[C@@H](C)CCC4)C2)C1` [Example 1-15, (3S)-N,5-dimethyl-3-(((8S)-8-methyl-2-(2-(2-propenoyl)-2,6-diazaspiro[3.4]octan-6-yl)-5,6,7,8-tetrahydro-4-quinazolinyl)amino)hexanamide], the results for the IC50 in assay [1] (setting [5]), in assay [2] and in assay [3] were 4420 nM, 2260 nM and more than 5000 nM, respectively.

`C=CC(=O)N1CC2(CCN(c3nc(N[C@H](CC(=O)NC)CC(C)C)c4c(n3)[C@H](C)CCC4)C2)C1` [Example 1-8, (3S)-N,5-dimethyl-3-(((8R)-8-methyl-2-(2-(2-propenoyl)-2,6-diazaspiro[3.4]octan-6-yl)-5,6,7,8-tetrahydro-4-quinazolinyl)amino)hexanamide]: the IC50 (in general, the concentration at which inhibition is half-maximal) in assay [1] (setting [5]) was 1100 nM; in assay [2] it was 1000 nM; in assay [3] it was more than 5000 nM.

`C=CC(=O)N1CC2(CCN(c3nc4c(c(N[C@H](CC(=O)NC)CC(C)C)n3)CCC(C(F)(F)F)C4)C2)C1` (stereo partly drawn) [Example 1-32, (3S)-N,5-dimethyl-3-((2-(2-(2-propenoyl)-2,6-diazaspiro[3.4]octan-6-yl)-7-(trifluoromethyl)-5,6,7,8-tetrahydro-4-quinazolinyl)amino)hexanamide]: the IC50 in assay [1] (setting [5]) was 57 nM; in assay [2] it was 24 nM; in assay [3] it was more than 25000 nM.

As for `C=CC(=O)N1CC2(CCN(c3nc(N[C@H](CC(=O)NC)CC(C)C)c4nn(C)cc4n3)C2)C1` [Example 1-10, (3S)-N,5-dimethyl-3-((2-methyl-5-(2-(2-propenoyl)-2,6-diazaspiro[3.4]octan-6-yl)-2H-pyrazolo[4,3-d]pyrimidin-7-yl)amino)hexanamide], the results for the IC50 in assay [1] (setting [5]), in assay [2] and in assay [3] were 916 nM, 3630 nM and more than 25000 nM, respectively.

As to `C=CC(=O)N1CC2(CCN(c3nc4c(c(N[C@@H](CC(C)C)Cn5cccn5)n3)CCC(C)(C)C4)C2)C1` [Example 1-46, 1-(6-(7,7-dimethyl-4-(((2S)-4-methyl-1-(1H-pyrazol-1-yl)-2-pentanyl)amino)-5,6,7,8-tetrahydro-2-quinazolinyl)-2,6-diazaspiro[3.4]octan-2-yl)-2-propen-1-one], the values for the IC50 in assay [1] (setting [5]), in assay [2] and in assay [3] were 162 nM, 122 nM and 20200 nM, respectively.

Take `C=CC(=O)N1CC2(CCN(c3nc4c(c(N[C@H](Cc5ncco5)CC(C)C)n3)CCCC4)C2)C1` [Example 1-57, 1-(6-(4-(((2S)-4-methyl-1-(1,3-oxazol-2-yl)-2-pentanyl)amino)-5,6,7,8-tetrahydro-2-quinazolinyl)-2,6-diazaspiro[3.4]octan-2-yl)-2-propen-1-one]: the IC50 in assay [1] (setting [5]) turned out to be 2100 nM; in assay [2], 2490 nM; in assay [3] it was 17900 nM.

`C=CC(=O)N1CC2(CCN(c3nc(N[C@H](CC(=O)NC)CC(C)C)c4ccc(C5CC5)cc4n3)C2)C1` [Example 1-40, (3S)-3-((7-cyclopropyl-2-(2-(2-propenoyl)-2,6-diazaspiro[3.4]octan-6-yl)-4-quinazolinyl)amino)-N,5-dimethylhexanamide]: the IC50 in assay [1] (setting [5]) amounted to 84 nM; in assay [2], 169 nM; in assay [3], 19000 nM.

As for `C=CC(=O)N1CC2(CCN(c3nc(N[C@H](CC(=O)NC)CC(C)C)c4occc4n3)C2)C1` [Example 1-7, (3S)-N,5-dimethyl-3-((2-(2-(2-propenoyl)-2,6-diazaspiro[3.4]octan-6-yl)furo[3,2-d]pyrimidin-4-yl)amino)hexanamide], the 50% inhibitory concentration (IC50) in assay [1] (setting [4]) was 494 nM; in assay [2], 58200 nM; in assay [3] it was more than 5000 nM.

As to `C=CC(=O)N1CC2(CCN(c3nc4c(c(N[C@H](Cc5nccs5)CC(C)C)n3)CCC(C)(C)C4)C2)C1` [Example 1-43, 1-(6-(7,7-dimethyl-4-(((2S)-4-methyl-1-(1,3-thiazol-2-yl)-2-pentanyl)amino)-5,6,7,8-tetrahydro-2-quinazolinyl)-2,6-diazaspiro[3.4]octan-2-yl)-2-propen-1-one], the results for the IC50 in assay [1] (setting [5]), in assay [2] and in assay [3] were 121 nM, 205 nM and 13500 nM, respectively.

Regarding `C=CC(=O)N1CC2(CCN(c3nc4c(c(N[C@H](CC(=O)NC)c5cccc(C#N)c5)n3)CCCC4)C2)C1` (single isomer, unassigned) [Example 1-21-2], the IC50 in assay [1] (setting [5]) was 129950 nM; in assay [2], 14000 nM; in assay [3], more than 25000 nM.

On to `C=CC(=O)N1CC2(CCN(c3cc4ccccc4c(N[C@H](CC(=O)NC)CC(C)C)n3)C2)C1` [Example 1-6, (3S)-N,5-dimethyl-3-((3-(2-(2-propenoyl)-2,6-diazaspiro[3.4]octan-6-yl)-1-isoquinolinyl)amino)hexanamide], for which the IC50 in assay [1] (setting [4]) was 424 nM; in assay [2], 8210 nM; in assay [3] it was more than 25000 nM.

`C=CC(=O)N1CC2(CCN(c3nc4c(c(N[C@H](CC(=O)NC)Cc5ccccc5)n3)CCC(C)(C)C4)C2)C1` [Example 1-50, (3S)-3-((7,7-dimethyl-2-(2-(2-propenoyl)-2,6-diazaspiro[3.4]octan-6-yl)-5,6,7,8-tetrahydro-4-quinazolinyl)amino)-N-methyl-4-phenylbutanamide]: the IC50 is 1310 nM in assay [1] (setting [5]), 587 nM in assay [2] and more than 25000 nM in assay [3].

Consider `C=CC(=O)N1CC2(CCN(c3nc(N[C@H](CC(=O)NC)CC(C)C)c4ccc(C)cc4n3)C2)C1` [Example 1-25, (3S)-N,5-dimethyl-3-((7-methyl-2-(2-(2-propenoyl)-2,6-diazaspiro[3.4]octan-6-yl)-4-quinazolinyl)amino)hexanamide], for which the values for the IC50 in assay [1] (setting [5]), in assay [2] and in assay [3] were 339 nM, 921 nM and more than 5000 nM, respectively.

Consider `C=CC(=O)N1CC2(C1)CN(c1nc3c(c(N[C@H](CC(=O)NC)CC(C)C)n1)CCC(C)C3)CC2(F)F` (stereo partly drawn) [Example 1-2, (3S)-3-((2-(8,8-difluoro-2-(2-propenoyl)-2,6-diazaspiro[3.4]octan-6-yl)-7-methyl-5,6,7,8-tetrahydro-4-quinazolinyl)amino)-N,5-dimethylhexanamide], for which the IC50 is 19 nM in assay [1] (setting [5]), 47 nM in assay [2] and 15100 nM in assay [3].

In the case of `C=CC(=O)N1CC2(CCN(c3nc(N[C@H](CC(=O)NC)CC(C)C)c4c(ncn4C)n3)C2)C1` [Example 1-14, (3S)-N,5-dimethyl-3-((7-methyl-2-(2-(2-propenoyl)-2,6-diazaspiro[3.4]octan-6-yl)-7H-purin-6-yl)amino)hexanamide], the IC50 in assay [1] (setting [5]) was 196000 nM; in assay [2], more than 25000 nM; in assay [3], more than 25000 nM.

As to `C=CC(=O)N1CC2(CCN(c3nc4c(c(N[C@H](CC(=O)NC)CC(C)C)n3)CC(C)CC4)C2)C1` (stereo partly drawn) [Example 1-33, (3S)-N,5-dimethyl-3-((6-methyl-2-(2-(2-propenoyl)-2,6-diazaspiro[3.4]octan-6-yl)-5,6,7,8-tetrahydro-4-quinazolinyl)amino)hexanamide], the IC50 in assay [1] (setting [5]) was 446 nM; in assay [2], 350 nM; in assay [3], more than 25000 nM.

For `C=CC(=O)N1CC2(CCN(c3nc(N[C@H](CC(=O)NC)CC(C)C)c4ccc(C#N)cc4n3)C2)C1` [Example 1-26, (3S)-3-((7-cyano-2-(2-(2-propenoyl)-2,6-diazaspiro[3.4]octan-6-yl)-4-quinazolinyl)amino)-N,5-dimethylhexanamide], the results for the IC50 in assay [1] (setting [5]), in assay [2] and in assay [3] were 180 nM, 185 nM and more than 25000 nM, respectively.

On to `C=CC(=O)N1CC2(CCN(c3nc(N[C@H](CC(=O)NC)CC(C)C)c4ncc(C)cc4n3)C2)C1` [Example 1-34, (3S)-N,5-dimethyl-3-((7-methyl-2-(2-(2-propenoyl)-2,6-diazaspiro[3.4]octan-6-yl)pyrido[3,2-d]pyrimidin-4-yl)amino)hexanamide], for which the IC50 in assay [1] (setting [5]) was 372 nM; in assay [2], 217 nM; in assay [3], more than 25000 nM.

Regarding `C=CC(=O)N1CC2(CCN(c3nc(N[C@H](CC(=O)NC)CC(C)C)c4ncc(C5CC5)cc4n3)C2)C1` [Example 1-38, (3S)-3-((7-cyclopropyl-2-(2-(2-propenoyl)-2,6-diazaspiro[3.4]octan-6-yl)pyrido[3,2-d]pyrimidin-4-yl)amino)-N,5-dimethylhexanamide], the IC50 in assay [1] (setting [5]) is 60 nM; in assay [2], 959 nM; in assay [3] it was more than 5000 nM.

For the molecule `C=CC(=O)N1CC2(C[C@@H](CO)N(c3nc4c(c(N[C@H](CC(=O)NC)CC(C)C)n3)CCCC4)C2)C1` (single isomer, unassigned) [Example 1-24-2], the IC50 in assay [1] (setting [5]) was 59100 nM; in assay [2], more than 25000 nM; in assay [3], more than 25000 nM.

For the origin of these results see patent US20230406860A1, “HETEROCYCLIC SPIRO COMPOUNDS AND METHODS OF USE” (AMGEN INC., priority 2020, published 2023).
